Here are results for nine compounds from patent US6562849B1, “Amine derivative compounds” (Sankyo Company, Limited, priority 1999, dated 2003).

SMILES strings stand for the structures. Counter-ions that a name gives are not always drawn.

For the assay, the system named is KK mice (age 4-5 months) with diabetes. As to the kind of experiment: Blood sugar lowering effect in KK mice with diabetes. Conditions: Mus musculus, po, 72 h, powder diet containing 0.01% of the test compound for 3 days, plasma glucose vs control group, groups of 4 mice, read-out: Blood sugar decrease rate (%). The class given is in vivo. From the text:
[Test Example] Blood Sugar Lowering Effect
Blood samples were collected from the caudal vein of KK mice (age 4-5 months) with diabetes followed by measurement of their blood sugar levels. Next, after assigning the mice to groups (of 4 mice each) so that the mean blood sugar levels of each group were the same, mouse laboratory powder diet (F-1, Funabashi Farms), prepared so as to contain 0.01% of the test compound, was given to the mice for 3 days. The groups of mice that were given test compound were designated as the drug dose groups. It should be noted that a group that was given laboratory diet not containing the test compound was designated as the control group. Blood samples were collected from the caudal vein of the mice 3 days later and the glucose concentration of the plasma obtained by centrifugal separation was measured with a glucose analyzer (Glucoloader, A & T Corp.). The mean decrease of blood sugar rate (%) was determined according to the following equation.
Blood sugar decrease rate (%)=(mean blood sugar value of control group−mean blood sugar value […] of drug dose group)×100/(blood sugar value of control group)

As to `Cn1c(COc2ccc(CC3SC(=O)NC3=O)cc2)nc2ccc(Oc3ccc(NC(=O)c4cccc(Cl)c4)cc3)cc21` (stereo not drawn) [Example 54, 3-Chloro-N-[4-[2-[4-(2,4-dioxothiazolidin-5-ylmethyl)phenoxymethyl]-1-methyl-1H-benzimidazol-6-yloxy]phenyl]benzamide], the inhibition in vivo at 0.01 % in diet was 43.4%.
With `Cn1c(COc2ccc(CC3SC(=O)NC3=O)cc2)nc2ccc(Oc3ccc(NC(=O)c4ccncc4)cc3)cc21` (stereo not drawn) [Example 55, N-[4-[2-[4-(2,4-Dioxothiazolidin-5-ylmethyl)phenoxymethyl]-1-methyl-1H-benzimidazol-6-yloxy]phenyl]isonicotinamide], the inhibition in vivo at 0.01 % in diet turned out to be 53.8%.
With `Cn1c(COc2ccc(CC3SC(=O)NC3=O)cc2)nc2ccc(Oc3ccc(NC(=O)c4cccnc4)cc3)cc21` (stereo not drawn) [Example 56, N-[4-[2-[4-(2,4-Dioxothiazolidin-5-ylmethyl)phenoxymethyl]-1-methyl-1H-benzimidazol-6-yloxy]phenyl]nicotinamide], the inhibition in vivo at 0.01 % in diet came out at 63.6%.
Turning to `Cn1c(COc2ccc(CC3SC(=O)NC3=O)cc2)nc2ccc(Oc3ccc(NC(=O)c4ccc(F)cc4F)cc3)cc21` (stereo not drawn) [Example 57, 2,4-Difluoro-N-[4-[2-[4-(2,4-dioxothiazolidin-5-ylmethyl)phenoxymethyl]-1-methyl-1H-benzimidazol-6-yloxy]phenyl]benzamide], the inhibition in vivo at 0.01 % in diet is 57.3%.
The same measure for `Cn1c(COc2ccc(CC3SC(=O)NC3=O)cc2)nc2ccc(Oc3ccc(NC(=O)C4CCCC4)cc3)cc21` (stereo not drawn) [Example 59, N-[4-[2-[4(2,4-dioxothiazolidin-5-ylmethyl)phenoxymethyl]-1-methyl-1H-benzimidazol-6-yloxy]phenyl]cyclopentanecarboxamide]: 56.8%; for `Cn1c(COc2ccc(CC3SC(=O)NC3=O)cc2)nc2ccc(Oc3ccc(NC(=O)c4ccc5ccccc5c4)cc3)cc21` (stereo not drawn) [Example 60, N-[4-[2-[4-(2,4-Dioxothiazolidin-5-ylmethyl)phenoxymethyl]-1-methyl-1H-benzimidazol-6-yloxy]phenyl]naphthalene-2-carboxamide]: 49.8%; for `CCCCCCN(C(C)=O)c1ccc(Oc2ccc3nc(COc4ccc(CC5SC(=O)NC5=O)cc4)n(C)c3c2)cc1` (stereo not drawn) [Example 61, N-[4-[2-[4-(2,4-Dioxothiazolidin-5-ylmethyl)phenoxymethyl]-1-methyl-1H-benzimidazol-6-yloxy]phenyl]-N-n-hexylacetamide hydrochloride]: 54.2%.
With `Cn1c(COc2ccc(CC3SC(=O)NC3=O)cc2)nc2ccc(Oc3ccc(CCNC(=O)c4cccnc4)cc3)cc21` (stereo not drawn) [Example 63, N-[2-[4-[2-[4-(2,4-Dioxothiazolidin-5-ylmethyl)phenoxymethyl]-1-methyl-1H-benzimidazol-6-yloxy]phenyl]ethyl]nicotinamide dihydrochloride], the inhibition in vivo at 0.01 % in diet stood at 55.7%.
Turning to `Cn1c(COc2ccc(CC3SC(=O)NC3=O)cc2)nc2ccc(Oc3ccc(CCNC(=O)Cc4cccc(Cl)c4)cc3)cc21` (stereo not drawn) [Example 64, 2-(3-Chlorophenyl)-N-[2-[4-[2-[4-(2,4-dioxothiazolidin-5-ylmethyl)phenoxymethyl]-1-methyl-1H-benzimidazol-6-yloxy]phenyl]ethyl]acetamide hydrochloride], the inhibition in vivo at 0.01 % in diet was 43.5%.
